# Experimental data reported in BindingDB's records for doi:10.7270/Q2NV9GP9 (Burnham Center For Chemical Genomics, 2010).
# Where a name gives a salt, the structure may show the parent alone.
# Target: T1, Apelin receptor (Homo sapiens, UniProt P35414)
# T1 sequence (P35414 whole entry): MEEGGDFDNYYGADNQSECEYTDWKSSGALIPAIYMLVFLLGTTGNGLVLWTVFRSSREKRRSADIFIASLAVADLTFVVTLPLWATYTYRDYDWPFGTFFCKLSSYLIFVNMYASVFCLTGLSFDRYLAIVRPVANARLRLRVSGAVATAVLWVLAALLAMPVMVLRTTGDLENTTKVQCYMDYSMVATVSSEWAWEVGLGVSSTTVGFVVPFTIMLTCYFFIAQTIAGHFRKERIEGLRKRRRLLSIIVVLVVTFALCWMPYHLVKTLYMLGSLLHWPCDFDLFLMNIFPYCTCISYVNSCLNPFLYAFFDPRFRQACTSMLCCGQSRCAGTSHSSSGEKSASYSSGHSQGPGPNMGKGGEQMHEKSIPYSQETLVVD
# Assay: APJ agonists inducing beta-arrestin recruitment, dose response, cell-based, luminescence, uHTS hits (AID 488748)
# Conditions: not given
row,EC50 [µM],Structure (SMILES)
1,> 100,Cc1ccc(S(=O)(=O)Nc2nc(-c3ccccc3)cs2)cc1
2,> 100,CCc1ccc2nc(N(CCCN(C)C)C(=O)c3ccc(S(=O)(=O)N4CCc5ccccc5C4)cc3)sc2c1 [MLS001239341]
3,> 100,"COC(=O)CCCC1=CC2=CC(=O)C(C)(OC(=O)c3cccs3)C(=O)C2=CN1C1CCCCC1 (stereo not given) [[2-cyclohexyl-3-(4-methoxy-4-oxobutyl)-7-methyl-6,8-dioxoisoquinolin-7-yl] thiophene-2-carboxylate]"
4,> 100,Cc1ccc2nc(NNC(=O)c3ccc(S(=O)(=O)N4CCc5ccccc5C4)cc3)sc2c1 [SMR000235768]
5,> 100,"CCOC(=O)C1C(Cn2cnc3ccccc32)=NC(=O)NC1c1cc(C)ccc1C (stereo not given) [ethyl 6-(benzimidazol-1-ylmethyl)-4-(2,5-dimethylphenyl)-2-oxidanylidene-3,4-dihydro-1H-pyrimidine-5-carboxylate]"
6,> 100,"CCCCC1=CC2=CC(=O)C(C)(OC(=O)C3CCCC3)C(=O)C2=CO1 (stereo not given) [cyclopentanecarboxylic acid (3-butyl-7-methyl-6,8-dioxo-2-benzopyran-7-yl) ester]"
7,> 100,CN(C)CCCN(C(=O)c1ccc(S(=O)(=O)N2CCc3ccccc3C2)cc1)c1nc2c(F)cccc2s1 [SMR000807825]
8,> 100,CC1CCN(S(=O)(=O)c2ccc3nc(N4CCN(c5ccccc5)CC4)ccc3c2)CC1 [SMR000630335]
9,> 100,CCOc1cc2[nH]c(=S)n(CCCC(=O)NCc3ccccn3)c(=O)c2cc1OCC
10,> 100,CCN(CC)CCNC(=O)c1ccc(NC(=O)c2cc(-c3ccco3)nc3ccccc23)cc1
11,> 100,COc1ccc(CN=Nc2cc(C)nc3ccc(OC)cc23)c(OC)c1
12,> 100,COc1cc2c(cc1NC(=O)c1cc(-c3cccnc3)nc3ccc(C)cc13)oc1ccccc12 [N-(2-methoxydibenzofuran-3-yl)-6-methyl-2-pyridin-3-ylquinoline-4-carboxamide]
13,> 100,"CCOc1cc2[nH]c(=S)n(CCC(=O)N3CCc4ccccc4C3)c(=O)c2cc1OCC [3-[3-(3,4-dihydro-1H-isoquinolin-2-yl)-3-oxidanylidene-propyl]-6,7-diethoxy-2-sulfanylidene-1H-quinazolin-4-one]"
14,> 100,CCCCC1=CC2=CC(=O)C(C)(OC(=O)CC)C(=O)C2=CN1c1ccccc1 (stereo not given) [CMLD003542]
15,> 100,CCOc1cc2[nH]c(=S)n(CC3CCCN3CC)c(=O)c2cc1OCC (stereo not given) [SMR000030998]
16,> 100,"COC(=O)C1C(Cn2cnc3ccccc32)=NC(=O)NC1c1cc(C)ccc1C (stereo not given) [methyl 6-(benzimidazol-1-ylmethyl)-4-(2,5-dimethylphenyl)-2-oxo-3,4-dihydro-1H-pyrimidine-5-carboxylate]"
17,> 100,CC1=NOC(=O)/C1=C\c1ccc(-c2cc(Cl)ccc2Cl)o1 [SMR000141784]
18,> 100,COc1ccc2[nH]c(=O)c(CN(Cc3ccco3)C(c3nnnn3Cc3ccccc3)C(C)C)cc2c1 (stereo not given) [SMR000123514]
19,> 100,COc1cc2c(cc1NC(=O)c1cccc([N+](=O)[O-])c1)oc1ccccc12 [SMR000187222]

row,EC50 [µM],Structure (SMILES)
1,> 100,Cc1ccc2nc(C(C#N)=Cc3ccc([N+](=O)[O-])o3)[nH]c2c1
2,78.9,C=CCSc1nc(O)c(CC)c(=O)n1C(C)CC (stereo not given) [1-butan-2-yl-5-ethyl-6-oxidanyl-2-prop-2-enylsulfanyl-pyrimidin-4-one]
3,> 100,CCOc1ccc2nc(N(CCCN(C)C)C(=O)c3ccc(S(=O)(=O)N4CCc5ccccc5C4)cc3)sc2c1
4,> 100,COC/C=C/C1=CC2=CC(=O)C(C)(OC(=O)c3cnc4ccccc4n3)C(=O)C2=CN1c1ccccc1 (stereo not given)
5,> 100,"CCC(C)NC(=O)CSC1=Nc2ccccc2C2=NC(CC(=O)NCc3ccccc3)C(=O)N12 (stereo not given) [2-[5-[2-(butan-2-ylamino)-2-oxidanylidene-ethyl]sulfanyl-3-oxidanylidene-2H-imidazo[1,2-c]quinazolin-2-yl]-N-(phenylmethyl)ethanamide]"
6,> 100,Cc1cc(C)c2nc(NNC(=O)c3ccc(S(=O)(=O)N4CCc5ccccc5C4)cc3)sc2c1
7,> 100,CCN(CC)CCNC(=O)c1cc(-c2cccnc2)nc2ccc(S(=O)(=O)N3CCC(C)CC3)cc12 [N-[2-(diethylamino)ethyl]-6-[(4-methyl-1-piperidinyl)sulfonyl]-2-(3-pyridinyl)-4-quinolinecarboxamide]
8,> 100,CCOc1ccc2nc(O)c(CN(Cc3ccco3)C(CC)c3nnnn3Cc3ccccc3)cc2c1 (stereo not given) [3-({[1-(1-Benzyl-1H-tetrazol-5-yl)-propyl]-furan-2-ylmethyl-amino}-methyl)-6-ethoxy-1H-quinolin-2-one]
9,> 100,O=C(Cn1ncc2c([nH]c3ccccc32)c1=O)Nc1ccc(CN2CCCCC2)cc1 [SMR000629297]
10,> 100,CC(C)(C)OC(=O)NCCCCCc1cn([C@@H](CO)C(=O)NCCCCCCCCCCC(=O)N2CCN(C(=O)OC(C)(C)C)CC2)nn1 [Boc-KS]
11,> 100,Cc1cc(C)c2sc(NNC(=O)c3ccc(S(=O)(=O)N4CCc5ccccc5C4)cc3)nc2c1
12,> 100,COc1cccc2sc3cc(NCC[C@@H]4CCCN4C)ccc3c(=O)c12
13,> 100,C=CCn1c(SCC(=O)N2CCN(c3ccccc3)CC2)nc2c([nH]c3ccccc32)c1=O [MLS001236003]
14,> 100,"CCOC(=O)N1CCN(S(=O)(=O)c2ccc(C(=O)N(CCCN(C)C)c3nc4ccc(Cl)cc4s3)cc2)CC1 [ethyl 4-[4-[(6-chloranyl-1,3-benzothiazol-2-yl)-[3-(dimethylamino)propyl]carbamoyl]phenyl]sulfonylpiperazine-1-carboxylate;hydrochloride]"
15,> 100,"Cn1ncc2c(ON=C(N)c3ccc(C(C)(C)C)cc3)ncnc21 [4-tert-butyl-N'-(1-methylpyrazolo[3,4-d]pyrimidin-4-yl)oxy-benzamidine]"
16,> 100,"CCOc1cc2[nH]c(=S)n(CCN3CCC(C)CC3)c(=O)c2cc1OCC [6,7-diethoxy-3-[2-(4-methyl-1-piperidinyl)ethyl]-2-sulfanylidene-1H-quinazolin-4-one]"
17,> 100,CCOc1cc2[nH]c(=S)n(CCN3CCCCC3CC)c(=O)c2cc1OCC (stereo not given) [MLS000520831]
18,58.4,COc1ccccc1-n1c(SC)nc(O)cc1=O
19,> 100,COc1cccc2sc3ccc(NCCC4CCCN4C)cc3c(=O)c12 (stereo not given) [MLS001249993]

row,EC50 [µM],Structure (SMILES)
1,> 100,Cc1cccc2sc(N(CCCN(C)C)C(=O)c3ccc(S(=O)(=O)N4CCc5ccccc5C4)cc3)nc12 [SMR000807812]
2,> 100,"CCCCNc1c(-c2cccc(-c3ccc(OC)cc3)c2)nc2ccc(C)cn12 [N-butyl-2-[3-(4-methoxyphenyl)phenyl]-6-methylimidazo[1,2-a]pyridin-3-amine;2,2,2-trifluoroacetic acid]"
3,> 100,Cc1ccc2nc(N(CCCN(C)C)C(=O)c3ccc(S(=O)(=O)N4CCc5ccccc5C4)cc3)sc2c1 [MLS001239478]
4,> 100,CSc1cccc(NC(=S)NC(=O)CCc2ccccc2)c1 [N-[(3-methylsulfanylphenyl)carbamothioyl]-3-phenyl-propanamide]
5,7.9,CCN1C(c2ccccc2)=C(c2ccccc2)S/C1=C\C=C1/SC(=S)N(C)C1=O [MLS000526292]
6,> 100,CC(C)C(=O)N1CCN(c2ccc(NC(=O)COc3ccccc3[N+](=O)[O-])cc2)CC1 [N-[4-(4-isobutyryl-1-piperazinyl)phenyl]-2-(2-nitrophenoxy)acetamide]
7,> 100,CN(C)CCCN(C(=O)c1cc2cc([N+](=O)[O-])ccc2s1)c1nc2cc3c(cc2s1)OCCO3 [SMR000807865]
8,> 100,Cc1ccc(C=NNC(=O)CSc2nnc(-c3ccc(Cl)cc3)n2-c2ccccc2)o1 [SMR000218122]
9,> 100,CCCCCCC1=Cc2c/c(=C3/NN=C(c4cc(OC)c(OC)c(OC)c4)O3)c(=O)oc2=CC1=O
10,> 100,CCCc1cc(C(=O)Nc2sc3c(c2C(=O)OCC)CCCC3)no1 [MLS000116384]
11,> 100,Cc1ccc(C=NNC(=O)CSc2nnc(-c3ccccc3)n2-c2ccc(Cl)cc2)o1 [SMR000217660]
12,> 100,NC(=NOS(=O)(=O)c1ccc2ccccc2c1)c1ccncc1 [N'-[(2-naphthylsulfonyl)oxy]-4-pyridinecarboximidamide]
13,> 100,"COc1ccc2nc(O)c(C(c3nnnn3CC3CCCO3)N3CCc4ccccc4C3)cc2c1 (stereo not given) [3-{(3,4-Dihydro-1H-isoquinolin-2-yl)-[1-(tetrahydro-furan-2-ylmethyl)-1H-tetrazol-5-yl]-methyl}-6-methoxy-1H-quinolin-2-one]"
14,> 100,COc1ccc(OC)c2sc(N(CCCN(C)C)C(=O)c3ccc(S(=O)(=O)N4CCc5ccccc5C4)cc3)nc12 [MLS001239200]
15,> 100,CN(C)CCCN(C(=O)c1ccc(S(=O)(=O)N2CCc3ccccc3C2)cc1)c1nc2ccc(F)cc2s1 [SMR000807789]
16,> 100,CCOc1cccc2sc(N(CCCN(C)C)C(=O)c3ccc(S(=O)(=O)N(C)Cc4ccccc4)cc3)nc12 [MLS001239362]
17,> 100,CCC(C)NC(=O)CSC1=Nc2ccccc2C2=NC(CC(=O)NCc3ccc(F)cc3)C(=O)N12 (stereo not given)
18,> 100,COc1ccc2sc(N(CCCN(C)C)C(=O)c3ccc(S(=O)(=O)N4CCc5ccccc5C4)cc3)nc2c1 [MLS001239377]
19,> 100,"Clc1ccccc1CSc1nnc(-c2ccncc2)o1 [2-{[(2-chlorophenyl)methyl]sulfanyl}-5-(pyridin-4-yl)-1,3,4-oxadiazole]"

row,Structure (SMILES),EC50 [µM]
1,CCCSc1nc(O)c(CC)c(=O)n1C(C)CC (stereo not given) [1-butan-2-yl-5-ethyl-6-oxidanyl-2-propylsulfanyl-pyrimidin-4-one],56.9

# Same assay, conditions: inactive by the depositor's call
row,EC50 [µM],Structure (SMILES)
1,45.9,CCc1nnc(NC(=O)CSc2nc3cccnc3n2C2CCCCC2)s1 [MLS000073979]
2,96.6,"Cc1cc(C)n2nc3nc(N4CCCCC4)nc(-c4ccco4)c3c2n1 [4-(2-furyl)-6,8-dimethyl-2-piperidin-1-ylpyrimido[4',5':3,4]pyrazolo[1,5-a]pyrimidine]"
